Molecules are shown by their SMILES. Structures can show the parent of a compound that is named as a salt. Some results are limits rather than exact numbers.

The target in the first test is ROCK2 (Homo sapiens, UniProt O75116). Put plainly: ROCK2 kinase inhibition assay (LABCHIP 3000 Reader, FITC peptide substrate).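 Further: rho kinase reaction read by separating phosphorylated from unphosphorylated peptide on chip, with inhibition of kinase activity computed per concentration across a dose-response series.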
ROCK2, sequence (O75116 whole entry, species assumed): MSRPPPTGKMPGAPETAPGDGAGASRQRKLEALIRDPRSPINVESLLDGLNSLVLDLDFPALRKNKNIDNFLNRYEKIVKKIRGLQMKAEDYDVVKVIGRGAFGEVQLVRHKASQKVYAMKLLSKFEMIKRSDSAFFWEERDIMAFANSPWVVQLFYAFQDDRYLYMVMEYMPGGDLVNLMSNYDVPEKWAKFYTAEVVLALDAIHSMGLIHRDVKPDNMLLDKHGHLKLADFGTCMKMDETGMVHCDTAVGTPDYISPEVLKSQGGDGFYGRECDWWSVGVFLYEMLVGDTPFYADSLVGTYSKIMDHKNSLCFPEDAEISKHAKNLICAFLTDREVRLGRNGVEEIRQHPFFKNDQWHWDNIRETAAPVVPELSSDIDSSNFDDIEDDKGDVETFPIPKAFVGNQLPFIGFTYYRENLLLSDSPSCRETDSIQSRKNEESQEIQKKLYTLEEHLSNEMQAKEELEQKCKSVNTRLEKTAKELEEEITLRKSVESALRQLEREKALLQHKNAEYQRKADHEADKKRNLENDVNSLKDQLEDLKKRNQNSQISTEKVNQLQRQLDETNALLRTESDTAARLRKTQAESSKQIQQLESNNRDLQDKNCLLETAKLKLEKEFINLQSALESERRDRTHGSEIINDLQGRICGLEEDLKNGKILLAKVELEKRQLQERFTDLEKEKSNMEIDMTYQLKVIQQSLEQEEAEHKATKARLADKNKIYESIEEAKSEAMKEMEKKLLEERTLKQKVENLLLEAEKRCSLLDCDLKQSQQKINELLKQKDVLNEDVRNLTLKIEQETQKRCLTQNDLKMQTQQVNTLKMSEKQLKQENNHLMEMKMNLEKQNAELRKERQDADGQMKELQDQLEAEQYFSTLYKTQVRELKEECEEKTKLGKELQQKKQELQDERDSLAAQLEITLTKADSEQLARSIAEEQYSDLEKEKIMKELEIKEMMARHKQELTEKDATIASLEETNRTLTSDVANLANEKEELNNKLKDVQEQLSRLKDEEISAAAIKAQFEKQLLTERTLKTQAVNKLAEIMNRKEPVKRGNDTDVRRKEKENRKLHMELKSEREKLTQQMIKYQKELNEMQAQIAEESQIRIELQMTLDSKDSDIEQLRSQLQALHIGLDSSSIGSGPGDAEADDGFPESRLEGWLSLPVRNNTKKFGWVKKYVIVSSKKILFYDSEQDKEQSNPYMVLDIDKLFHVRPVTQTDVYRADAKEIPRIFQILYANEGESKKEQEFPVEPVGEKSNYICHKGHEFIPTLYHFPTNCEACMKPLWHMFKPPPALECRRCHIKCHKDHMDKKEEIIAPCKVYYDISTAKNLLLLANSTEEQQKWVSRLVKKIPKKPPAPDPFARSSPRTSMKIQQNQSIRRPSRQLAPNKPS
Settings: not given
What is called IC50 is the concentration needed to halve the response being measured. Consider `CC(F)(F)COc1ccc2c(C(=O)N[C@H]3CC4(C3)C[C@H](Oc3ncccc3C(N)=O)C4)cnn2c1-c1cn[nH]c1` (stereo partly drawn) [Example 310, N-((aR)-6-((3-carbamoylpyridin-2-yl)oxy)spiro[3.3]heptan-2-yl)-6-(2,2-difluoropropoxy)-7-(1H-pyrazol-4-yl)pyrazolo[1,5-a]pyridine-3-carboxamide], for which the IC50 was less than 5 nM. On the same count and under the same terms, with `CN1CCN(c2ccn3c(C(=O)N[C@H]4CC5(C4)C[C@H](Oc4ncccc4C(N)=O)C5)cnc3c2)CC1` (stereo partly drawn) [Example 336, N-((aR)-6-((3-carbamoylpyridin-2-yl)oxy)spiro[3.3]heptan-2-yl)-7-(4-methylpiperazin-1-yl)imidazo[1,2-a]pyridine-3-carboxamide] the figure was 5 to 50 nM; with `CC(C)(O)COc1ccc2c(C(=O)NC3CC4(C3)CC(Oc3cc(O)ccc3C(N)=O)C4)cnn2c1` (centres unmarked) [Example 259, N-(6-(2-carbamoyl-5-hydroxyphenoxy)spiro[3.3]heptan-2-yl)-6-(2-hydroxy-2-methylpropoxy)pyrazolo[1,5-a]pyridine-3-carboxamide], 5 to 50 nM.

With `Cc1ccc(C(N)=O)c(OC2CC3(CC(NC(=O)c4cnn5c(C6CC6)c(OCC(C)(C)O)ccc45)C3)C2)c1` (centres unmarked) [Example 217, N-(6-(2-carbamoyl-5-methylphenoxy)spiro[3.3]heptan-2-yl)-7-cyclopropyl-6-(2-hydroxy-2-methylpropoxy)pyrazolo[1,5-a]pyridine-3-carboxamide], the IC50 was less than 5 nM. Same read-out and setting: the same measure for `Cn1nc(C(=O)N[C@H]2CC3(C2)C[C@H](Oc2ncccc2C(N)=O)C3)c2ccccc21` (some centres unmarked) [Example 66]: 5 to 50 nM. Same read-out and setting: with `N#Cc1ccc2c(c1)CN(C(=O)NC1CC3(C1)CC(Oc1ncccc1C(N)=O)C3)C2` (centres unmarked) [Example 13, N-(6-((3-carbamoylpyridin-2-yl)oxy)spiro[3.3]heptan-2-yl)-5-cyanoisoindoline-2-carboxamide] the figure was 50 to 250 nM; with `CC(C)(O)Cn1nc(C(=O)N[C@H]2CC3(C2)C[C@H](Oc2ncccc2C(N)=O)C3)c2ccc(OC(F)(F)F)cc21` (stereo partly drawn) [Example 98, N-((aR)-6-((3-carbamoylpyridin-2-yl)oxy)spiro[3.3]heptan-2-yl)-1-(2-hydroxy-2-methylpropyl)-6-(trifluoromethoxy)-1H-indazole-3-carboxamide, trifluoroacetate], 5 to 50 nM; with `[H][C@]1(Oc2ncccc2C(N)=O)C[C@@]2(C[C@H](NC(=O)c3cccc(-c4cnn(C)c4)c3)C2)C1` (some centres unmarked) [Example 54], 50 to 250 nM. The same measure, in the same setting: with `NC(=O)c1cccnc1O[C@H]1CC2(C[C@H](NC(=O)c3cnn4cc(OC5CCC5)ccc34)C2)C1` (stereo partly drawn) [Example 338, N-((aR)-6-((3-carbamoylpyridin-2-yl)oxy)spiro[3.3]heptan-2-yl)-6-cyclobutoxypyrazolo[1,5-a]pyridine-3-carboxamide] the figure was 5 to 50 nM; with `CNC(=O)c1cc(-c2ccc(C(N)=O)c(OC3CC4(CC(NC(=O)c5cnn6cc(OCC(C)(C)O)ccc56)C4)C3)c2)ccc1F` (centres unmarked) [Example 295, 4-fluoro-3′-((6-(6-(2-hydroxy-2-methylpropoxy)pyrazolo[1,5-a]pyridine-3-carboxamido)spiro[3.3]heptan-2-yl)oxy)-N3-methyl-[1,1′-biphenyl]-3,4′-dicarboxamide], 5 to 50 nM. For the molecule `[H][C@]1(Oc2ncccc2C(N)=O)C[C@@]2(C[C@H](NC(=O)c3nnn4cc(OCC(C)(C)O)ccc34)C2)C1` (stereo partly drawn) [Example 375, N-((aR)-6-((3-carbamoylpyridin-2-yl)oxy)spiro[3.3]heptan-2-yl)-6-(2-hydroxy-2-methylpropoxy)-[1,2,3]triazolo[1,5-a]pyridine-3-carboxamide], the IC50 lay in the range of 50 to 250 nM.

With `NC(=O)c1cccnc1O[C@H]1CC2(C[C@H](NC(=O)c3nn(Cc4ccccc4)c4ccccc34)C2)C1` (stereo partly drawn) [Example 132, 1-benzyl-N-((aR)-6-((3-carbamoylpyridin-2-yl)oxy)spiro[3.3]heptan-2-yl)-1H-indazole-3-carboxamide, trifluoroacetate], the IC50 lay in the range of 5 to 50 nM. Same read-out and setting: the same measure for `Cn1nc(C(C)(C)C)cc1C(=O)N[C@H]1CC2(C1)C[C@H](Oc1ncccc1C(N)=O)C2` (stereo partly drawn) [Example 77, 2-((aR)-6-(3-(tert-butyl)-1-methyl-1H-pyraole-5-carboxamido)spiro[3.3]heptan-2-yl)oxy) nicotinamide, trifluoroacetate]: 5 to 50 nM; for `Cc1nc(-c2cccnc2)sc1C(=O)N[C@H]1CC2(C1)C[C@H](Oc1ncccc1C(N)=O)C2` (stereo partly drawn) [Example 135, N-((aR)-6-((3-carbamoylpyridin-2-yl)oxy)spiro [3.3]heptan-2-yl)-4-methyl-2-(pyridin-3-yl)thiazole-5-carboxamide, bis-trifluoroacetate]: 250 to 2500 nM. Turning to `NC(=O)c1cccnc1O[C@H]1CC2(C[C@H](NC(=O)c3ccc(F)c(S(N)(=O)=O)c3)C2)C1` (stereo partly drawn) [Example 150, 2-(((aR)-6-(4-fluoro-3-sulfamoylbenzamido)spiro[3.3]heptan-2-yl)oxy) nicotinamide, trifluoroacetate], the IC50 lay within 5 to 50 nM. In the case of `[H][C@]1(Oc2ncccc2C(N)=O)C[C@@]2(C[C@H](NC(=O)c3nnn4c(C5CC5)c(OCc5ccccc5)ccc34)C2)C1` (stereo partly drawn) [Example 374, 6-(benzyloxy)-N-((aR)-6-((3-carbamoylpyridin-2-yl)oxy)spiro[3.3]heptan-2-yl)-7-cyclopropyl-[1,2,3]triazolo[1,5-a]pyridine-3-carboxamide], the half-maximal inhibitory concentration (IC50) is 50 to 250 nM. On the same count and under the same terms, with `Cc1c(C(=O)NC2CC3(C2)CC(Oc2ncccc2C(N)=O)C3)cnn1-c1ccc(C#N)c(F)c1` (centres unmarked) [Example 391] the figure was 50 to 250 nM; with `CC(C)(O)Cn1nc(C(=O)N[C@H]2CC3(C2)C[C@H](Oc2ncccc2C(N)=O)C3)c2ccc(Br)cc21` (stereo partly drawn) [Example 81, 6-bromo-N-((aR)-6-((3-carbamoylpyridin-2-yl)oxy)spiro[3.3]heptan-2-yl)-1-(2-hydroxy-2-methylpropyl)-1H-indazole-3-carboxamdie, trifluoroacetate], 5 to 50 nM; with `NC(=O)c1cccnc1O[C@H]1CC2(C[C@H](NC(=O)c3cnn4cc(N5CCC(F)(F)CC5)ccc34)C2)C1` (stereo partly drawn) [Example 316, N-((aR)-6-((3-carbamoylpyridin-2-yl)oxy)spiro[3.3]heptan-2-yl)-6-(4,4-difluoropiperidin-1-yl)pyrazolo[1,5-a]pyridine-3-carboxamide], less than 5 nM. Molecule `COc1cccc(-c2ccc3c(C(=O)N[C@H]4CC5(C4)C[C@H](Oc4ncccc4C(N)=O)C5)nn(C(F)F)c3c2)c1` (stereo partly drawn) [Example 177, N-((aR)-6-((3-carbamoylpyridin-2-yl)oxy)spiro[3.3]heptan-2-yl)-1-(difluoromethyl)-6-(3-methoxyphenyl)-1H-indazole-3-carboxamide, trifluoroacetate] displayed an IC50 of 5 to 50 nM. Same read-out and setting: with `COc1ccn2c(C(=O)N[C@H]3CC4(C3)C[C@H](Oc3ncccc3C(N)=O)C4)cnc2c1` (stereo partly drawn) [Example 348, N-((aR)-6-((3-carbamoylpyridin-2-yl)oxy)spiro[3.3]heptan-2-yl)-7-methoxyimidazo[1,2-a]pyridine-3-carboxamide] the figure was 50 to 250 nM; with `N#Cc1ccc(-c2ccc(C(=O)N[C@H]3CC4(C3)C[C@H](Oc3ncccc3C(N)=O)C4)cn2)cc1` (stereo partly drawn) [Example 161, N-((aR)-6-((3-carbamoylpyridin-2-yl)oxy)spiro[3.3]heptan-2-yl)-6-(4-cyanophenyl) nicotinamide], 5 to 50 nM; with `CC(C)(O)COc1ccc2c(C(=O)NC3CC4(C3)CC(Oc3cc(-c5cccc(COC(=O)NCCC(=O)OC(C)(C)C)c5)ccc3C(N)=O)C4)cnn2c1` (centres unmarked) [Example 250, tert-butyl 3-((((4′-carbamoyl-3′-((6-(6-(2-hydroxy-2-methylpropoxy)pyrazolo[1,5-a]pyridine-3-carboxamido)spiro[3.3]heptan-2-yl)oxy)-[1,1′-biphenyl]-3-yl)methoxy)carbonyl)amino)propanoate], 50 to 250 nM. Still for that read-out and setting: the same measure for `N#Cc1ccc2nc(C(=O)N[C@H]3CC4(C3)C[C@H](Oc3ncccc3C(N)=O)C4)cn2c1` (stereo partly drawn) [Example 76, N-((aR)-6-((3-carbamoylpyridin-2-yl)oxy)spiro-[3.3]heptan-2-yl)-6-cyanoimidazo-[1,2-a]pyridine-2-carboxamide, trifluoroacetate]: 250 to 2500 nM; for `NC(=O)c1ccccc1O[C@H]1CC2(C[C@H](NC(=O)N3CCc4ccccc43)C2)C1` (stereo partly drawn) [Example 37, N-((aR)-6-(2-carbamoylphenoxy)spiro[3.3]heptan-2-yl)indoline-1-carboxamide]: 50 to 250 nM.

Staying with this test, now noted: read-out: ROCK2 Activity (ROCK2 IC50); 5 μM ATP, 1.5 μM peptide substrate, pH 7.5.
As to `NC(=O)c1cccnc1OC1CC2(CC(NC(=O)c3nc(C(F)F)n4cc(OCc5ccccc5)ccc34)C2)C1` [Example 435, 6-(benzyloxy)-N-((aR)-6-((3-carbamoylpyridin-2-yl)oxy)spiro[3.3]heptan-2-yl)-3-(difluoromethyl)imidazo[1,5-a]pyridine-1-carboxamide], the IC50 is less than 5 nM. Same read-out and setting: the same measure for `NC(=O)c1cccnc1OC1CC2(CC(NC(=O)c3nc(C(F)(F)F)n4cc(Br)ccc34)C2)C1` [Example 429, 6-bromo-N-((aR)-6-((3-carbamoylpyridin-2-yl)oxy)spiro[3.3]heptan-2-yl)-3-(trifluoromethyl)imidazo[1,5-a]pyridine-1-carboxamide]: 5 to 50 nM; for `NC(=O)c1cccnc1OC1CC2(CC(NC(=O)c3nn(CCC(F)(F)F)c4cc(OCCC(F)(F)F)ccc34)C2)C1` [Example 117, N-((aR)-6-((3-carbamoylpyridin-2-yl)oxy)spiro[3.3]heptan-2-yl)-6-(3,3,3-trifluoropropoxy)-1-(3,3,3-trifluoropropyl)-1H-indazole-3-carboxamide, trifluoroacetate]: 5 to 50 nM; for `CC(C)(C(N)=O)n1nc(C(=O)NC2CC3(C2)CC(Oc2ncccc2C(N)=O)C3)c2ccc(F)cc21` [Example 402, 1-(1-amino-2-methyl-1-oxopropan-2-yl)-N-((aR)-6-((3-carbamoylpyridin-2-yl)oxy)spiro[3.3]heptan-2-yl)-6-fluoro-1H-indazole-3-carboxamide, TFA]: 5 to 50 nM.

Values taken from patent publication US10829501B2 (BRISTOL-MYERS SQUIBB COMPANY, priority 2016, dated 2020).
